The text below walks through data of US20120157478A1, “Hair Care Compositions and Methods to Improve Hair Appearance” (priority 2010, published 2012).

The subject of the test is primary human dermal papilla cells. Description: Survival of metabolically stressed primary human dermal papilla cells (ATP, Cell Titer Glo). The format is cell-based. To be noted: for Survival: 48 hr stress, Vehicle = 1.00; for benefit in increasing the survival of stressed dermal papilla cells (in words): additional testing, individual components versus mixture of the three. The source says:
The dermal papilla, in normal human hair, is the control center for hair diameter and growth. Increasing survival of dermal papilla cells in situ leads to increased hair diameter and to a longer anagen phase which results in longer hair, a higher hair density, and potentially delayed emergence of gray hair. The appearance of this hair results in healthier, younger looking hair. Accordingly, an increase in survival of dermal papilla cells correlates with healthier hair showing an increase in hair diameter, longer hair, higher hair density, and a delayed on-set of gray hair.
Primary human dermal papilla cells were metabolically stressed for 48 hours in reduced standard tissue culture media. During this period of stress the cells were treated with the mixtures below. After 48 hr the metabolic activity of the cells was measured by the amount of ATP using the Cell Titer Glo™ kit (Promega).

Take `Cn1c(=O)c2c(ncn2C)n(C)c1=O` [Caffeine, caffeine]: the “benefit in increasing the survival of stressed dermal papilla cells (in words)” value (from here on “benefit in increasing the survival”) is “little benefit”. For the same compound, the Survival (Caffeine 0.02%, first series) came to 0.94. The Survival (Caffeine 0.05%, second series) is given as 0.98.
Regarding `NC(=O)c1cccnc1` [Niacinamide, niacinamide], the “benefit in increasing the survival” value is on record as “little benefit”. Where the note is “Niacinamide 0.5 mM, second series”, the Survival is 1.02. The compound also yielded a Survival (Niacinamide 1.5 mM, first series) of 0.71.
In the case of `CC(C)(CO)[C@@H](O)C(=O)NCCCO` [Panthenol, panthenol], the “benefit in increasing the survival” value is on record as “little benefit”. The compound also showed a Survival (Panthenol 0.03%, first series) of 1.02. Further, the Survival (Panthenol 0.3%, second series) was 0.75.
For `O=c1cc(-c2ccc(O)cc2)oc2cc(O)cc(O)c12` [apigenin, 5,7-Dihydroxy-2-(4-hydroxyphenyl)-4H-1-benzopyran-4-one], where the note is “metabolically stressed 48 hr in reduced standard tissue culture media, ATP by Cell Titer Glo, concentrations not given”, the “increase in the hair follicle cells that survived” value is recorded as 122%.
